{"source": "paper PMC6756013", "about": "“B591, a novel specific pan-PI3K inhibitor, preferentially targets cancer stem cells” (Oncogene, 2019)", "key": {"[1]": {"test_system": "PI3K/Akt signaling in MDA-MB-231 and SUM-159PT cells", "experiment": "Western blot of PI3K/mTOR signaling (Supplementary Fig. S5A)", "conditions": "5 h"}, "[2]": {"test_system": "phosphorylation of Akt and ERK in RD cells", "experiment": "Immunoblotting of feedback activation of Akt and ERK", "format": "cell-based, human", "conditions": "up to 24 h, B591 10 μM", "procedure": "Fig. 2 B591 inhibits PI3K/Akt pathway in multiple cancer cell lines. a Representative images of Akt1 redistribution in IGF-1-treated cells in the absence or presence of B591. Scale bar represents 10 μm. Arrows indicate IGF-1-mediated membrane translocation detected by the image analysis algorithm. b Inhibition of mTORC1 and mTORC2 signaling in multiple cancer cell lines, exposed for 5 h to increasing concentrations of B591. c HepG2 cells were treated with DMSO or 20 μM of B591 for 5 h. Immunofluorescence (red) intensity reflects eIF4E subcellular distribution. Cells were visualized with high content reader. Representative images are shown, and scale bar represents 50 μm. d Nuclear-to-cytoplasmic ratio of eIF4E in five cancer cell lines was determined via high content reader. e The phosphorylation of AKT and ERK was determined by immunoblotting in RD cells in the presence of 10 μM of B591 after indicated time of exposure. f Inhibition of the phosphorylation of AKT and ERK in RD cells treated with B591, PI-103 or Rapamycin for 24 h was determined by immunoblotting\nDespite a significant efficacy in preclinical models, the clinical tumor response to mTORC1 inhibitors, such as rapalogs, is modest. […]"}, "[3]": {"test_system": "MDA-MB-231 and SUM-159PT monolayer and mammosphere cells", "experiment": "Apoptosis of monolayer versus mammosphere cells (PE-Annexin V/7-AAD)", "format": "cell-based, human", "conditions": "48 h", "procedure": "(§1) Cells were treated with indicated agents for 48 h, and cells were harvested and processed for apoptosis assay using the PE-Annexin V/7-AAD Apoptosis Detection Kit. d Representative flow cytometry plots of apoptosis inducing activity of B591 (10 μM) and paclitaxel (10 nM) on monolayer and mammosphere MDA-MB-231 cells. e B591 preferentially targeted CD44^high/CD24^low cells. Cells were treated with B591 or paclitaxel for 2 days. Following a 4-day recovery period, cells were co-stained with CD44 and CD24 antibodies and subjected to FACS analysis. Representative flow cytometry plots show the effect of B591 on CD44^high/CD24^low population in MDA-MB-231 cells in vitro. f B591 decreased mammosphere forming efficiency. Primary MDA-MB-231 mammospheres were treated with B591 or paclitaxel for 48 h. Results of the secondary mammosphere-formation assay are shown. Scale bar represents 40 μm. g B591 decreased the expression of CSC markers in MDA-MB-231 cells. Cells were treated with B591 or paclitaxel for 2 days. […] They label a gated population in plots with axes CD44 and CD24. / Panel E: DMSO is the vehicle control. Its printed value is included all the same.\nSupplementary Fig. S10. B591 preferentially targets CSCs. […] Following a 4-day recovery period, the expression of CSC markers was analyzed with western blot analysis."}, "[4]": {"test_system": "MDA-MB-231 and SUM-159PT mammospheres", "experiment": "Secondary mammosphere-formation assay", "format": "cell-based, human", "conditions": "primary mammospheres treated 48 h, then passaged", "procedure": "Cells were treated with indicated agents for 48 h, and cells were harvested and processed for apoptosis assay using the PE-Annexin V/7-AAD Apoptosis Detection Kit. d Representative flow cytometry plots of apoptosis inducing activity of B591 (10 μM) and paclitaxel (10 nM) on monolayer and mammosphere MDA-MB-231 cells. e B591 preferentially targeted CD44^high/CD24^low cells. Cells were treated with B591 or paclitaxel for 2 days. Following a 4-day recovery period, cells were co-stained with CD44 and CD24 antibodies and subjected to FACS analysis. Representative flow cytometry plots show the effect of B591 on CD44^high/CD24^low population in MDA-MB-231 cells in vitro. f B591 decreased mammosphere forming efficiency. Primary MDA-MB-231 mammospheres were treated with B591 or paclitaxel for 48 h. Results of the secondary mammosphere-formation assay are shown. Scale bar represents 40 μm. g B591 decreased the expression of CSC markers in MDA-MB-231 cells. Cells were treated with B591 or paclitaxel for 2 days. […]\nIn the mammosphere assay, MDA-MB-231 (Fig. 3f) and SUM-159PT (Supplementary Fig. S10D) cells were treated with B591 or paclitaxel, and the mammospheres were collected and subsequently passaged. Secondary Mammosphere-forming activity was determined, which reflects the self-renewal capability of CSCs. […]"}, "[5]": {"test_system": "MDA-MB-231 and SUM-159PT monolayer and mammosphere cells", "experiment": "Proliferation inhibition of monolayer versus mammosphere cells", "format": "cell-based, human", "procedure": "The proliferation inhibitory activities of B591 were compared between monolayer and mammosphere cells.\nas §1"}, "[6]": {"test_system": "SUM-159PT orthotopic xenografts", "experiment": "Tumor recurrence study in SUM-159PT xenografts", "format": "in vivo, NOD/SCID mice", "conditions": "paclitaxel 4 mg/kg, B591 10 mg/kg, i.p., 2 weeks, then 3 weeks recurrence", "procedure": "(§2) Fig. 6 B591 reduces breast tumor metastasis and recurrence. a Representative images show the effect of B591 (8 mg/kg) on lung metastasis of 4T1 cells, and data from six mice were plotted. b SUM-159PT cells were respectively treated with the indicated agents (8 nM Paclitaxel, 8 nM Paclitaxel plus 5 μM B591) for 24 h, the cells were then cultured for mammospheres. Representative images were shown, and data from two independent experiments were plotted. c–f SUM-159PT xenografts (n = 7) were treated with 4 mg/kg Paclitaxel, or 10 mg/kg B591, or both for 2 weeks, then ended the treatment and waited for tumor recurrence. Tumor volume (c) and body weight (d) were measured every 2 days after treatment, and tumors were photographed (e) and weighted (f) at the end of the experiment. ^*p < 0.05, ^**p < 0.01 versus indicated groups\nIn the tumor recurrence study, orthotopic xenografts were established with 5 × 10^6 SUM-159PT cells. When tumor volume reached about 50 mm^3, mice were randomly divided into four groups for treatment with vehicle, 4 mg/kg Paclitaxel, 10 mg/kg B591, and combination of 4 mg/kg Paclitaxel plus 10 mg/kg B591 (i.p.). Treatment was stopped after 2 weeks, and the tumors were allowed for recurrence for 3 weeks. Tumor volume and the body weight of mice were measured during the experiments. In the end of treatment, the mice were killed, and the tumor tissues were dissected and weighted."}, "[7]": {"test_system": "SUM-159PT cells", "experiment": "Mammosphere formation after paclitaxel pre-treatment", "format": "cell-based", "conditions": "8 nM Paclitaxel or 8 nM Paclitaxel plus 5 μM B591 for 24 h", "procedure": "as §2\nBased on the finding that B591 preferentially targets CSCs, we supposed that by eliminating the breast CSCs, B591 might delay breast tumor recurrence after initial treatment with chemotherapy drugs. Paclitaxel is a first-line chemotherapeutic agent used for breast cancer therapy. SUM-159PT cells were pre-treated with paclitaxel, and then the cells remaining alive were cultured for mammospheres."}}}
{"molecule": "Oc1cccc(-c2nc(N3CCOCC3)c3oc4ncccc4c3n2)c1", "note": "[PI-103]", "values": [{"measurement": "Effect on PI3K/Akt, mTORC1 and mTORC2 signaling", "setting": "[1]", "result": "inhibited PI3K downstream mTORC1 and mTORC2 signaling"}]}
{"molecule": "CO[C@H]1C[C@@H]2CC[C@@H](C)[C@@](O)(O2)C(=O)C(=O)N2CCCC[C@H]2C(=O)O[C@H]([C@H](C)C[C@@H]2CC[C@@H](O)[C@H](OC)C2)CC(=O)[C@H](C)/C=C(\\C)[C@@H](O)[C@@H](OC)C(=O)[C@H](C)C[C@H](C)/C=C/C=C/C=C/1C", "note": "[rapamycin, reference compound]", "values": [{"measurement": "Phosphorylation of Akt and ERK", "setting": "[2]", "result": "induced a hyper-activation of Akt and increased ERK phosphorylation"}]}
{"molecule": "CC(=O)O[C@H]1C(=O)[C@@]2(C)[C@H]([C@H](OC(=O)c3ccccc3)[C@]3(O)C[C@H](OC(=O)[C@H](O)[C@@H](NC(=O)c4ccccc4)c4ccccc4)C(C)=C1C3(C)C)[C@]1(OC(C)=O)CO[C@@H]1C[C@@H]2O", "note": "[paclitaxel, reference compound]", "values": [{"measurement": "Apoptosis induction, mammosphere versus monolayer populations", "setting": "[3]", "result": "induced less apoptosis of mammosphere populations than monolayer populations"}, {"measurement": "Secondary mammosphere-forming ability", "setting": "[4]", "result": "increased"}, {"measurement": "Proliferation inhibitory activity, mammosphere versus monolayer cells", "setting": "[5]", "result": "mammosphere cells were resistant"}, {"measurement": "Effect on PI3K/Akt, mTORC1 and mTORC2 signaling", "setting": "[1]", "result": "did not show any effect"}, {"measurement": "Tumor growth and regrowth after end of treatment", "setting": "[6]", "result": "induced initial tumor remission, but these tumors regrew quickly after termination of paclitaxel therapy"}, {"measurement": "Formation of mammospheres / paclitaxel-enriched CSCs", "setting": "[7]", "result": "increased the formation of mammospheres"}]}
